Two compounds from patent US7700651B2, “Preparations of phospholipids and pharmaceuticals containing 5-amino salicylic acid for the treatment of inflammatory bowel disease” (The Board of Regents of the University of Texas System, priority 2006, dated 2010) can be followed below.

In one data set the test system is C57BL/6 mice. Nature of the data set: Induction of colitis in mice by increasing DSS concentrations in drinking water for 4 days. It is filed as in vivo. As to conditions: 0% to 4% DSS in drinking water, four days. An excerpt:
Groups of four C57BL/6 mice were exposed to differing amount of dextran sodium sulfate (DSS) in their drinking water for a four day period of time. The mice were then euthanized and colon tissue weight per length measurements for each group of mice were made.
Groups of C57BL/6 mice were exposed to differing amount of dextran sodium sulfate (DSS) in their drinking water for a four day period of time. The mice fecal hemoglobin measurements were made at the end of the four day period.

Data set [1] concerns mice placed on 3% DSS in the drinking water to induce colitis. In words: DSS-induced colitis in mice, test formulations given in the diet. As to conditions: 3% DSS for four days. Format: in vivo, C57BL/6 mice. The method, then:
Phosal 35 SB, a soy lecithin oil containing approximately 35 wt. % phosphatidylcholine (PC), was placed in glass beaker to which 5ASA (or a 5ASA containing pharmaceutical) was added under moderate heat, about 40° C., and stirring until a 1:1 weight ratio was attained. The resulting oil-based formulation was coated with a pH-sensitive polymer, e.g., MultiSal™, or Eudragrit®-S, to form polymer encapsulated micro-spheres of the 5ASA/PC composition. These encapsulated micro-spheres are formed so that the 5ASA and PC are released only when the drug reaches the distal gut, where the pH is 7 or above and the polymer coating degrades. […]
Groups of C57BL/6 mice were exposed to different diets and their daily food consumption (grams/day) were measured over a four day period of time. […]
Now, the 5ASA:PL formulations can be compared to 5ASA in treating the colitis type disorder in mice. […] The efficacy of the treating compositions were determined by measuring colon tissue weight per length.
Groups of mice were placed on drinking water comprising saline containing 3% DSS for four days to induce a colitis type disorder and then treated with the compositions of this invention. The appearance of blood as indicated by an increased hemoglobin content in the feces was measured to determine the efficacy of 5ASA versus the 5ASA:PL formulations. […]

Data set [2] deals with rats with colitis induced by 4% dextran sodium sulfate (DSS) in drinking water. Nature of the data set: Recovery from DSS-induced colitis in rats, 5ASA 100 mg/kg b.i.d. intragastrically for 6 days. Format: in vivo, Sprague Dawley male rats. The method, then: Rats were placed on drinking water containing 4% dextran sodium sulfate (DSS) for 5 days and 20 hours to induce colitis after which they were returned to normal drinking water. The animals were then intragastrically administered twice daily for 6 subsequent days with: (a) saline (DSS control); (b) 5ASA at a dose of 100 mg/kg; (c) a 1:1 wt. ratio of 5ASA and Phosal 35 SB (an oil-based formulation); or (d) a 1:2 wt. ratio of 5ASA and Phospholipon 90G (an aqueous lipidic suspension) at the same dose of 5ASA, 100 mg/kg, b.i.d. The formulations (c) and (d) are phosphatidylcholine (PC) associated 5ASA formulations, where the PC and 5ASA are associated at the molecular level. These treatments are designed to compare the efficacy of 5ASA and two different PC:5ASA formulations.
At 1, 3 and 6 days, rats were euthanized and colonic tissue, blood and fecal matter were collected for biochemical and histological analyses to assess colonic inflammation and GI bleeding. A separate group of rats were not placed on DSS and served as “normal controls.”
Referring now to FIG. 8, changes in hematocrit during the 6 day recovery period were measured from the euthanized rats. Changes in hematocrit levels represent an indirect estimate of anemia and internal (GI) bleeding among the groups over the 6 day recovery period.
Colonic inflammation and injury were assessed by measuring a number of biochemical and histological indices. First, tissue edema were assessed by measuring tissue wet weight/unit length.
Colonic myeloperoxidase (MPO) activity, a biochemical marker of neutrophil infiltration into the tissue, was measured as another marker of inflammation.
Tissue histology was scored (under blinded conditions) for signs of injury and inflammation. To assess inflammation we scored the number of inflammatory cells in the lamina propia of the colonic submucosa using a scoring system from 1 (normal) to 4 (highly inflamed).
To assess colonic mucosal injury, a histological scoring system was used, where: 0=normal mucosa; 1=surface injury; 2=injury extending into the mid glandular region; 3=injury extending into the deep glandular region; and 4=injury extending into the serosal (muscle) layer.

Data set [3] has the same test system. In words: Recovery from DSS-induced colitis in rats, 5ASA 50 mg/kg BID intragastrically for 3 days. Format: in vivo, Sprague Dawley male rats. The procedure: The following experiments were designed to compare the efficacy of 5ASA versus 5ASA:PC formulations in treating rats that had been subjected to colitis induced by adding 4% dextran sodium sulfate (DSS) to their drinking water for over 5 days (5 day, 20 hours) and then returned to normal drinking water. The rats were then treated with 5ASA, in this experiment at a lower dose (50 mg/kg, BID) than that previously studied, in the absence or presence to a PL component for 3 days post DSS induced colitis.
Thirty two healthy male rats used in the study. […] Group 1 were given drinking water without added DSS. Groups 2-4 received drinking water containing 4% DSS for 6 days. At day 6, Group 2 received 1 mL saline BID intra gastrically. Group 3 received 5ASA (50 mg/Kg) BID intra gastrically. Group 4 received 5ASA (50 mg/Kg):Phosal 35SB:MCT oil (1:1:0.3), referred to heretofore as 5ASA:PC BID intra gastrically, where MCT=Medium Chain Triglyceride.
At day 9, the rats were euthanized and the following were measured: (a) hematocrit, (b) fecal hemoglobin, (c) colon weight/length, (d) colon myeloperoxidase (MPO), (e) colonic surface hydrophobicity and (f) colon histology.
In this study, rats were placed on regular drinking water (Group 1) or water containing 4% DSS and then intragastrically administered: saline (Group 2); 5ASA (Group 3) at a dose of 50 mg/kg BID); or 5ASA:PC (P35SB at 1:1 wt ratio) (Group 4) for 3 days at which time the following changes were seen.

dextran sodium sulfate [DSS]: in the data set on C57BL/6 mice, the “colonic inflammation or edema as colon tissue weight per length” value was 3% DSS was shown to cause the greatest increase and the fecal hemoglobin result is “increased fecal hemoglobin with increasing concentration”.

For the compound `Nc1ccc(O)c(C(=O)O)c1` [5ASA, 5-amino salicylic acid], the “colonic inflammation as colon tissue weight per length” value in data set [1] is given as “partial reversal”. In addition, the “overall colonic inflammation and tissue injury / recovery from colitis (biochemical and histological markers, conclusions)” value in data set [2] (100 mg/kg b.i.d., 3 to 6 days post-DSS) was “significantly reduces colonic inflammation and tissue injury”. In addition, in data set [2] (3 and 6 days, 100 mg/kg b.i.d.), the “number of inflammatory cells in lamina propia of colonic submucosa, score 1 (normal) to 4 (highly inflamed)” value is listed as “reduced number of inflammatory cells”. In addition, in data set [2] (3 days post-DSS, 100 mg/kg b.i.d., vs saline-treated controls), the “tissue edema (tissue wet weight/unit length)” value is recorded as “reduced by 5ASA (non significantly)”. Also, in data set [2] (day 3, 100 mg/kg b.i.d.), the “colonic myeloperoxidase (MPO) activity” value is given as “reduction”. For the same compound, the “fecal hemoglobin (fecal blood loss)” value in data set [2] (first day of the recovery period, 100 mg/kg b.i.d.) is given as “may have had a beneficial effect in reducing fecal blood loss”. In addition, in data set [3] (50 mg/kg BID, 3 days post DSS), the “colon MPO activity (DSS-induced inflammation)” value is recorded as “partially”, the “colon weight/length (DSS-induced mucosal edema)” value is given as “partially reversed” and the “fecal hemoglobin (DSS-induced GI fecal blood loss)” value is reported as “partially reversed”. Also, the “overall recovery from DSS-induced colitis and GI bleeding (conclusion)” value in data set [3] (50 mg/kg twice daily intragastrically) is “promotes tissue recovery from DSS-induced colitis and reduces GI bleeding”.
